Key:
[1] = target: T1, Bombyx mori EcR (VP16 fusion, CVBE switch construct) (Bombyx mori, UniProt P49881); test: Z3 Assay (HEK-293 cells with CVBE and 6XEcRE LacZ, β-galactosidase reporter); conditions: for Fold Induction, Z3 Assay, 3.3 uM: 3.3 uM ligand; for Fold Induction, Z3 Assay, 3.3 uM / Fold Induction, Z3 Assay, 33 uM: ligand treated / DMSO treated cells; for Fold Induction, Z3 Assay, 3.3 uM / Fold Induction, Z3 Assay, 33 uM / EC50: average of two wells; for Fold Induction, Z3 Assay, 33 uM: 33 uM ligand; for Z3 assay Rel Max FI: maximum fold induction at any concentration relative to that of GS-E ligand; for Z3 assay Rel Max FI / EC50: HEK-293 Z3 cells; for EC50: read-out: Z3 assay EC50, β-galactosidase reporter
T1 sequence (P49881 86-606): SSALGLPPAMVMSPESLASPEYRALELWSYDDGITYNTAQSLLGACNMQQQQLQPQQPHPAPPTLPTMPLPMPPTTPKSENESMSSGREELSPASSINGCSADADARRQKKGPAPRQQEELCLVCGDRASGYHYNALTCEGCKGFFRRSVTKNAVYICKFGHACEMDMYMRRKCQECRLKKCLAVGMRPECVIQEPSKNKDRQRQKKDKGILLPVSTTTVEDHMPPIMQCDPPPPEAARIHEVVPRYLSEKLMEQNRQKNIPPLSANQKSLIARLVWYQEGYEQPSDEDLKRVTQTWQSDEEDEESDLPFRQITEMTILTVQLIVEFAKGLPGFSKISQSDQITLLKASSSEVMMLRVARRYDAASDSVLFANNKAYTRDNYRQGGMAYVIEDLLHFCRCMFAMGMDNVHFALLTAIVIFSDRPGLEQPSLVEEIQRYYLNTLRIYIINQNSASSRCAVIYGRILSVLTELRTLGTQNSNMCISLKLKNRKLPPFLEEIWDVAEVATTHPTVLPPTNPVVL
T1 sequence (P19793 1-462 partner): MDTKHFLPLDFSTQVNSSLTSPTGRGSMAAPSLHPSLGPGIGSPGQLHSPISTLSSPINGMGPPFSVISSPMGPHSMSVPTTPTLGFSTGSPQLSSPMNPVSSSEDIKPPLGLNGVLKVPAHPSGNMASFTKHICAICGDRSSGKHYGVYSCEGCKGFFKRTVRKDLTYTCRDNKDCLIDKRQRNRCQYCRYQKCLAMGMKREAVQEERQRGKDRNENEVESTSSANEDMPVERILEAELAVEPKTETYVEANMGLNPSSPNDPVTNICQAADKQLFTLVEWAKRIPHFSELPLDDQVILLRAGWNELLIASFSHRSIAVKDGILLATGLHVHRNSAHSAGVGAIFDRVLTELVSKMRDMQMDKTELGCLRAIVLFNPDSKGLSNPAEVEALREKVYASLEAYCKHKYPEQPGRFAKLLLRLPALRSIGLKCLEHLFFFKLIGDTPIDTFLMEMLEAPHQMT

[2] = target: GAL4 DBD-CfEcR(DEF)/VP16AD-MmRXRE (Choristoneura fumiferana, UniProt O77240); test: 13B3 Assay (CHO stable cell line, luciferase reporter); conditions: for Fold Induction, 13B3 Assay, 3.3 uM: 3.3 uM ligand; for Fold Induction, 13B3 Assay, 3.3 uM / Fold Induction, 13B3 Assay, 33 uM: RLU ligand treated / RLU DMSO treated cells; for Fold Induction, 13B3 Assay, 3.3 uM / Fold Induction, 13B3 Assay, 33 uM / EC50: average of two wells; for Fold Induction, 13B3 Assay, 33 uM: 33 uM ligand; for 13B3 assay Rel Max FI: maximum fold induction at any concentration relative to that of GS-E ligand, CHO 13B3 cells; for EC50: read-out: 13B3 EC50, CHO 13B3 stable cell line, luciferase reporter, 48 h
Summary of the method: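 CHO 13B3 clone stably expressing GAL4 DBD–CfEcR(DEF) and VP16AD–MmRXR(DE) with GAL4 RE–luciferase reporter; cells plated 24 h at 37 °C, then treated with ligands (DMSO stocks diluted 300-fold), 8 concentrations 33–0.01 μM.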

SMILES | Fold Induction, Z3 Assay, 3.3 uM [1] | Fold Induction, Z3 Assay, 33 uM [1] | Z3 assay Rel Max FI [1] | EC50 [1] | Fold Induction, 13B3 Assay, 3.3 uM [2] | Fold Induction, 13B3 Assay, 33 uM [2] | 13B3 assay Rel Max FI [2] | EC50 [2]
CCc1c(C(=O)NN(C(=O)c2cccc(C)c2)C(C)(C)C)ccc2c1OCCO2 [RG-101036] | 767 | 404 | 1.049 | 54 nM | 4582 | 908 | 0.545 | 223 nM
CCc1ccc(C(=O)NN(C(=O)c2ccccc2CC)C(C)(C)C)cc1 [RG-102592] | 746 | 574 | 0.699 | 3890 nM | 194 | 909 | 0.684 | 4920 nM
C=Cc1c(OC)cccc1C(=O)NN(C(=O)c1cc(C)cc(C)c1)C(C)(C)C [RG-102021] | 417 |  | 0.920 | 513 nM | 4081 |  | 1.136 | 4040 nM
CCc1c(OC)cccc1C(=O)NN(C(=O)c1cc(OC)cc(OC)c1)C(C)(C)C [RG-100778] |  | 365 | 1.000 | 513 nM |  | 2344 |  | 
CCc1cccc(C(=O)NN(C(=O)c2cc(C)cc(C)c2)C(C)(C)C)c1C [RG-101691] | 654 | 1089 | 1.068 | 174 nM | 5245 | 630 | 0.918 | 406 nM
CC(C)(C)N(NC(=O)c1ccc2c(c1)OCO2)C(=O)c1ccc(F)cc1Cl [RG-101048] |  | 283 |  | 19100 nM |  | 701 |  | 
CCc1ccc(C(=O)NN(C(=O)c2cc(C)cc(C)c2)C(C)C(C)(C)C)cc1 (stereo not drawn) [RG-103451] | 67 | 118 | 1.054 | 83 nM | 576 | 661 | 0.742 | 208 nM
COc1cccc(C(=O)NN(C(=O)c2ccc(Cl)cc2F)C(C)(C)C)c1C [RG-100929] |  | 490 |  | 631 nM |  | 359 |  | 
Cc1cc(C)cc(C(=O)N(NC(=O)c2ccc3c(c2)CCCC3)C(C)(C)C)c1 [RG-101887] | 1004 | 334 | 0.930 | 257 nM | 2462 | 542 | 0.579 | 861 nM
COc1cc(Cl)ccc1C(=O)N(NC(=O)c1cccc(OC)c1C)C(C)(C)C [RG-100848] | 885 | 26 | 0.996 | 240 nM | 3391 | 578 | 0.666 | 1640 nM
Cc1cc(C)cc(C(=O)N(NC(=O)c2ccc(CC#N)cc2)C(C)(C)C)c1 [RG-100875] | 1006 | 1081 | 0.818 | 2040 nM | 23 | 1143 | 0.853 | 4020 nM
CCc1c(C(=O)NN(C(=O)c2cc(C)cc(C)c2)C(C)(C)C)ccc2c1OC(C)O2 (stereo not drawn) [RG-101659] | 954 | 876 |  | 214 nM | 1556 | 1185 | 0.867 | 562 nM
Cc1cc(C)cc(C(=O)N(NC(=O)c2cccc(OC(F)(F)F)c2C)C(C)(C)C)c1 [RG-101692] | 435 | 860 | 0.975 | 309 nM | 4180 | 170 | 1.004 | 728 nM
COc1cccc(C(=O)NN(C(=O)c2cc(C)cc(Br)c2)C(C)(C)C)c1C [RG-101353] | 530 | 439 | 1.078 | 107 nM | 1347 | 718 | 1.163 | 675 nM
CC(=O)c1cccc(C(=O)NN(C(=O)c2cc(C)cc(C)c2)C(C)(C)C)c1C [RG-100814] | 410 | 1279 |  | 1150 nM | 423 | 1151 | 0.843 | 37900 nM
CCc1c(OC)cccc1C(=O)NN(C(=O)c1ccc(Cl)cc1OC)C(C)(C)C [RG-101218] | 886 | 398 | 0.998 | 316 nM |  | 1983 |  | 
CCc1ccc(C(=O)NN(C(=O)c2ccccc2[N+](=O)[O-])C(C)(C)C)cc1 [RG-101013] | 1039 | 846 | 0.720 | 1480 nM | 1084 | 406 | 0.539 | 2260 nM
Cc1cc(C)cc(C(=O)N(NC(=O)c2cc3c(cc2C)OCO3)C(C)(C)C)c1 [RG-101088] |  | 302 |  | 4070 nM |  | 1400 |  | 
COc1cc(C(=O)N(NC(=O)c2cccc(OC)c2C)C(C)(C)C)ccc1C [RG-100768] | 1246 | 425 | 1.129 | 214 nM |  | 709 |  | 

Source: patent US9102648B1, “Bioavailable diacylhydrazine ligands for modulating the expression of exogenous genes via an ecdysone receptor complex” (Intrexon Corporation, priority 2003, dated 2015)
